Results as given in ChEMBL document CHEMBL3046462, “Synthesis and anti-bacterial activities of some novel pyrazolobenzothiazine-based chalcones and their pyrimidine derivatives” (2012).

Tests used:
Assay type in all cases: functional
Escherichia coli [1] = experiment: Antibacterial activity against Escherichia coli X580 at 2 mg/ml after overnight incubation by hole plate method; conditions: read-out: DIZ
Escherichia coli [2] = experiment: Antibacterial activity against Escherichia coli X580 at 2 mg/ml after overnight incubation by hole plate method relative to cephalosporin C
Staphylococcus aureus [3] = experiment: Antibacterial activity against Staphylococcus aureus NCTC 6571 at 2 mg/ml after overnight incubation by hole plate method relative to cephalosporin C
Staphylococcus aureus [4] = experiment: Antibacterial activity against Staphylococcus aureus NCTC 6571 at 2 mg/ml after overnight incubation by hole plate method; conditions: read-out: DIZ

SMILES | zone of inhibition at 2000 µg/mL (Escherichia coli [1]) [mm] | fold change (FC) (Escherichia coli [2]) | fold change (FC) (Staphylococcus aureus [3]) | zone of inhibition at 2000 µg/mL (Staphylococcus aureus [4]) [mm]
COc1ccc(-c2cc(-c3ccc(-n4nc5c(c4C)N(C)S(=O)(=O)c4ccccc4-5)cc3)nc(N)n2)cc1OC | 14 | 4.13 | – | –
COc1ccc(-c2cc(-c3ccc(-n4nc5c(c4C)N(C)S(=O)(=O)c4ccccc4-5)cc3)nc(N)n2)c(OC)c1OC | 24 | 19.06 | – | –
COc1cc(-c2cc(-c3ccc(-n4nc5c(c4C)N(C)S(=O)(=O)c4ccccc4-5)cc3)nc(N)n2)cc(OC)c1OC | 13 | 3.55 | – | –
Cc1c2c(nn1-c1ccc(-c3cc(-c4ccc([N+](=O)[O-])cc4)nc(N)n3)cc1)-c1ccccc1S(=O)(=O)N2C | 14 | 4.13 | – | –
Cc1c2c(nn1-c1ccc(-c3cc(-c4ccccc4)nc(N)n3)cc1)-c1ccccc1S(=O)(=O)N2C | 14 | 4.13 | – | –
Cc1ccc(-c2cc(-c3ccc(-n4nc5c(c4C)N(C)S(=O)(=O)c4ccccc4-5)cc3)nc(N)n2)cc1 | 14 | 4.13 | – | –
Cc1cc(C)c(-c2cc(-c3ccc(-n4nc5c(c4C)N(C)S(=O)(=O)c4ccccc4-5)cc3)nc(N)n2)c(C)c1 | 15 | 4.81 | – | –
Cc1ccc(C(=O)/C=C/c2ccc(-n3nc4c(c3C)N(C)S(=O)(=O)c3ccccc3-4)cc2)cc1 | 13 | 3.55 | – | –
Cc1cc(C)c(C(=O)/C=C/c2ccc(-n3nc4c(c3C)N(C)S(=O)(=O)c3ccccc3-4)cc2)c(C)c1 | 15 | 4.81 | – | –
Cc1c2c(nn1-c1ccc(-c3cc(-c4ccc(F)cc4)nc(N)n3)cc1)-c1ccccc1S(=O)(=O)N2C | 15 | 4.81 | – | –
Cc1c2c(nn1-c1ccc(-c3cc(-c4ccc(Cl)cc4)nc(N)n3)cc1)-c1ccccc1S(=O)(=O)N2C | 16 | 5.61 | – | –
Cc1c2c(nn1-c1ccc(-c3cc(-c4cccc(Cl)c4)nc(N)n3)cc1)-c1ccccc1S(=O)(=O)N2C | 16 | 5.61 | – | –
Cc1c2c(nn1-c1ccc(-c3cc(-c4ccc(Br)cc4)nc(N)n3)cc1)-c1ccccc1S(=O)(=O)N2C | 19 | 8.87 | 508 | 17
Cc1c2c(nn1-c1ccc(-c3cc(-c4cccc(Br)c4)nc(N)n3)cc1)-c1ccccc1S(=O)(=O)N2C | 14 | 4.13 | – | –
COc1ccccc1-c1cc(-c2ccc(-n3nc4c(c3C)N(C)S(=O)(=O)c3ccccc3-4)cc2)nc(N)n1 | 20 | 10.34 | 1390 | 22
Cc1c2c(nn1-c1ccc(C(=O)/C=C/c3ccc(F)cc3)cc1)-c1ccccc1S(=O)(=O)N2C | 14 | 4.13 | – | –
Cc1c2c(nn1-c1ccc(C(=O)/C=C/c3ccc(Cl)cc3)cc1)-c1ccccc1S(=O)(=O)N2C | 13 | 3.55 | – | –
Cc1c2c(nn1-c1ccc(C(=O)/C=C/c3cccc(Cl)c3)cc1)-c1ccccc1S(=O)(=O)N2C | 15 | 4.81 | – | –
Cc1c2c(nn1-c1ccc(C(=O)/C=C/c3ccc(Cl)cc3Cl)cc1)-c1ccccc1S(=O)(=O)N2C | 16 | 5.61 | – | –
Cc1c2c(nn1-c1ccc(C(=O)/C=C/c3ccc(Br)cc3)cc1)-c1ccccc1S(=O)(=O)N2C | 15 | 4.81 | – | –
Cc1c2c(nn1-c1ccc(C(=O)/C=C/c3cccc(Br)c3)cc1)-c1ccccc1S(=O)(=O)N2C | 17 | 6.53 | – | –
COc1ccccc1/C=C/C(=O)c1ccc(-n2nc3c(c2C)N(C)S(=O)(=O)c2ccccc2-3)cc1 | 16 | 5.61 | – | –
COc1ccc(/C=C/C(=O)c2ccc(-n3nc4c(c3C)N(C)S(=O)(=O)c3ccccc3-4)cc2)cc1OC | 15 | 4.81 | – | –
COc1ccc(/C=C/C(=O)c2ccc(-n3nc4c(c3C)N(C)S(=O)(=O)c3ccccc3-4)cc2)c(OC)c1OC | 14 | 4.13 | – | –
Cc1c2c(nn1-c1ccc(C(=O)/C=C/c3ccc([N+](=O)[O-])cc3)cc1)-c1ccccc1S(=O)(=O)N2C | 15 | 4.81 | – | –
Cc1c2c(nn1-c1ccc(/C=C/C(=O)c3ccc(Cl)cc3)cc1)-c1ccccc1S(=O)(=O)N2C | 14 | 4.13 | – | –
Cc1c2c(nn1-c1ccc(/C=C/C(=O)c3ccc(Br)cc3)cc1)-c1ccccc1S(=O)(=O)N2C | 16 | 5.61 | – | –
COc1ccc(C(=O)/C=C/c2ccc(-n3nc4c(c3C)N(C)S(=O)(=O)c3ccccc3-4)cc2)cc1 | 15 | 4.81 | – | –
